# Where a chain is given by its changes, count along the chain named. Entries after “also recorded” stand apart in the source; their conditions may differ.
# B1: DS6-MM1-202 (conjugate)
# VH: QAYLQQSGAELVRSGASVKMSCKASGYTFTSYNMHWVKQTPGQGLEWIGYIYPGNGATNYNQKFKGKATLTADPSSSTAYMQISSLTSEDSAVYFCARGDSVPFAYWGQGTLVTVSA
# VL: QIVLTQSPAIMSASPGEKVTITCSAHSSVSFMHWFQQKPGTSPKLWIYSTSSLASGVPARFGGSGSGTSYSLTISRMEAEDAATYYCQQRSSFPLTFGAGTKLELKR
# B2: huDS6v1.01: humanized (resurfaced) DS6 version 1.01, heavy chain with the human 28E4 T73 (antibody, V domains shown)
# VH: B1 VH with Y3Q, Q5V, L11V, R13K, S14P, K65Q, P74T
# VL: B1 VL with Q1E, I10T, K18R, R76S
# B3: huDS6v1.01-DM4 (conjugate)
# VH: B1 VH with Y3Q, Q5V, L11V, R13K, S14P, K65Q, P74T
# VL: B1 VL with Q1E, I10T, K18R, R76S
# B4: cantuzumab mertansine: huC242-DM1 antibody-maytansinoid conjugate tested in a clinical trial (conjugate, chains of the INN, looked up)
# VH: QVQLVQSGAEVKKPGETVKISCKASDYTFTYYGMNWVKQAPGQGLKWMGWIDTTTGEPTYAQKFQGRIAFSLETSASTAYLQIKSLKSEDTATYFCARRGPYNWYFDVWGQGTTVTVSS
# VL: DIVMTQSPLSVPVTPGEPVSISCRSSKSLLHSNGNTYLYWFLQRPGQSPQLLIYRMSNLVSGVPDRFSGSGSGTAFTLRISRVEAEDVGVYYCLQHLEYPFTFGPGTKLELK
# modifications: DM1 maytansinoid conjugate
# notes: huC242-DM1 antibody-maytansinoid conjugate tested in a clinical trial
# Columns and labels:
# [1] = mice, single intravenous dose of 12.5 μg/kg; cited from earlier work
# HeLa cells [2] = assay: Clonogenic assay; format: cell-based, human
# Protocol: (§1) The cytotoxicity of maytansinoid conjugated muDS6 antibody was examined using 2 different assay formats in various DS6 positive cell lines. Clonogenic assays were conducted where cells (1000-2500 cells/well) were plated on 6-well plates in 2 ml of conjugate diluted in culture media. […] The wells were washed with PBS and the colonies were stained with a 1% w/v crystal violet/10% v/v formaldehyde/PBS solution. Unbound stain was then washed thoroughly from the wells with distilled water, and the plates were allowed to dry. The colonies were counted using a Leica StereoZoom 4 dissecting microscope.
# (§2) Plating efficiency (PE) was calculated as the number of colonies/number of cells plated. Surviving fraction was calculated as PE of treated cells/PE of non-treated cells. The IC50 concentration was determined by graphing the surviving fraction of cells vs. the molar concentration of the conjugate.
# OVCAR5 cells = assay: Clonogenic assay; format: cell-based, human
# Protocol: as §1, §2
# Caov-3 cells = assay: Clonogenic assay; format: cell-based; settings: Homo sapiens, 72 h exposure to free maytansine
# Protocol: as §1, §2
# Caov-4 cells = assay: Clonogenic assay; format: cell-based; settings: Homo sapiens, 72 h exposure to free maytansine
# Protocol: as §1, §2
# BT-483 cells = assay: Clonogenic assay; format: cell-based; settings: Homo sapiens, 72 h exposure to free maytansine
# Protocol: as §1, §2
# WISH cells [3] = assay: Clonogenic assay; format: cell-based; settings: Homo sapiens, 72 h exposure to free maytansine
# Protocol: as §1, §2
# KB cells [4] = assay: Clonogenic assay; format: cell-based; settings: Homo sapiens, 72 h exposure to free maytansine
# Protocol: as §1, §2
# HPAC cells = assay: Clonogenic assay; format: cell-based; settings: Homo sapiens, 72 h exposure to free maytansine
# Protocol: as §1, §2
# T-47D cells = assay: Clonogenic assay; format: cell-based; settings: Homo sapiens, T47D, 72 h exposure to free maytansine
# Protocol: as §1, §2
# TOV-21G cells = assay: Clonogenic assay; format: cell-based; settings: Homo sapiens, TOV21G, 72 h exposure to free maytansine
# Protocol: as §1, §2
# BT-20 cells = assay: Clonogenic assay; format: cell-based; settings: Homo sapiens, 72 h exposure to free maytansine
# Protocol: as §1, §2
# ZR-75-1 cells = assay: Clonogenic assay; format: cell-based; settings: Homo sapiens, 72 h exposure to free maytansine
# Protocol: as §1, §2
# HPAF-II cells = assay: Clonogenic assay; format: cell-based; settings: Homo sapiens, 72 h exposure to free maytansine
# Protocol: as §1, §2
# Hs766T cells = assay: Clonogenic assay; format: cell-based; settings: Homo sapiens, 72 h exposure to free maytansine
# Protocol: as §1, §2
# HeLa cells [5] = assay: Flow cytometry binding assay; design: species or system human; settings: HeLa cells, versus muDS6 antibody
# Protocol: (§3) Cells were maintained in a 37° C., 5% CO2 humidified incubator.
# (§4) Cells ([…]) were incubated, on ice for 3-4 h, with serially diluted concentrations of the DS6 antibody prepared in FACS buffer (2% goat serum, RPMI) into 96-well plates. The cells were spun down in a table top centrifuge at 1500 rpm for 5 min at 4° C. After removing the media, the wells were then refilled with 150 μl of FACS buffer. The wash step was then repeated. FITC-labeled goat anti-mouse IgG (Jackson Immunoresearch) was diluted 1:100 to FACS buffer and incubated with the cells for 1 h on ice. The plate was covered in foil to prevent photobleaching of the signal. After two washes, the cells were fixed with 1% formaldehyde and analyzed on a flow cytometer.
# WISH cells [6] = assay: MTT cell viability assay; format: cell-based, human
# Protocol: In the MTT assay, cells were seeded in 96-well plates at a density of 1000-5000 cells/well. The cells were plated with serial dilutions of either naked muDS6 or muDS6-DM1 immunoconjugate in 200 μl of culture media. The samples were run in triplicate. The cells and antibody/conjugate mixtures were then incubated for 2-7 d, at which time cell viability was assessed by an MTT ([3(4,5-dimethylthiazol-2-yl)-2,5-diphenyl tetrazolium bromide)] assay. MTT (50 μg/well) was added to the culture supernatant and allowed to incubate for 3-4 h at 37° C. The media was removed and the MTT formazan was solubilized in DMSO (175 μl/well). The absorbance at 540-545 nm was measured. […] The wells with the highest concentrations of conjugate contained no viable cells as compared to naked antibody which had no effect (FIGS. 21 and 24).
# (§5) The binding was conducted essentially as described for FIG. 20 except that KB cells were used rather than CaOv-3 cells.
# HPAC xenografts = assay: HPAC pancreatic cancer model with humanized DS6 conjugate; format: in vivo, mice
# Protocol: The in vivo activity of huDS6v1.01-DM4 was tested on the HPAC pancreatic model. HPAC cells were inoculated on day 0, and immunoconjugate treatments were given on day 13. PBS control animals were euthanized once tumor volumes exceeded 1000 mm^3. The conjugate was given at a dose of either 200 μg/kg or 600 μg/kg DM4, corresponding to an antibody concentration 15 mg/kg and 45 mg/kg, respectively. Tumor volume (FIG. 30A) and body weight (FIG. 30B) of the mice were monitored during the course of the study.
# KB cells [7] = assay: Flow cytometry binding assay; design: species or system human; settings: KB cells, versus unmodified antibody
# Protocol: as §3, §4
# The affinity of the purified huIgG was compared with muDS6 by flow cytometry. In the first set of experiments direct binding to a CA6-expressing cell line, KB, was measured. […] To confirm that the huDS6 versions retain the affinity of muDS6, competitive binding experiments were conducted. The advantage of this format is that the same detection system is used for both murine and human antibodies; that is biotin-muDS6/streptavidin-DTAF.
# as §5
# [8] = clinical trial patients; cited from earlier work
molecule,measurement,setting,value
COc1c(O)c2c(c3cc(C(=O)N4CCc5c4c(O)c(OC)c4[nH]c(C(=O)N6CC7CC78C6=CC(=O)c6[nH]cc(C)c68)cc54)[nH]c13)CCN2C(N)=O (centres unmarked) [CC-1065],day of mortality from delayed hepatotoxicity,[1],50 days
"COc1cc2cc(c1Cl)N(C)C(=O)C[C@H](OC(=O)[C@H](C)N(C)C(C)=O)[C@]1(C)O[C@H]1[C@H](C)[C@@H]1C[C@@](O)(NC(=O)O1)[C@H](OC)/C=C/C=C(\C)C2 [Maytansine, maytansine]",fold less maytansine sensitive,HeLa cells [2]; HeLa versus TOV-21G and HPAC,2-7 fold
same,IC50,"HeLa cells [2]; Homo sapiens, HeLa, 72 h exposure to free maytansine",0.1 nM
same,IC50,"OVCAR5 cells; Homo sapiens, OVCAR-5, OVCAR5, 72 h exposure to free maytansine",0.32 nM
same,fold less maytansine sensitive,OVCAR5 cells; OVCAR5 versus TOV-21G and HPAC,2-7 fold
same,IC50,Caov-3 cells,0.032 nM
same,IC50,Caov-4 cells,0.6 nM
same,IC50,BT-483 cells,0.15 nM
same,IC50,WISH cells [3],0.09 nM
same,IC50,KB cells [4],0.03 nM
same,IC50,HPAC cells,0.055 nM
same,IC50,T-47D cells,0.12 nM
same,IC50,TOV-21G cells,0.048 nM
same,IC50,BT-20 cells,0.35 nM
same,IC50,ZR-75-1 cells,0.1 nM
same,IC50,HPAF-II cells,0.6 nM
same,IC50,Hs766T cells,> 3 nM
B1,effect of conjugation on binding activity,HeLa cells [5],retains binding activity
B2,cytotoxic activity of unconjugated antibody,WISH cells [6],no cytotoxic activity
B3,toxicity / body weight,HPAC xenografts; 200 μg/kg DM4,lack of body weight loss; also recorded: not toxic
same,anti-tumor activity,"HPAC xenografts; 200 μg/kg DM4, treatment on day 13",all mice achieving complete tumor regression; also recorded: potent anti-tumor activity
same,effect of conjugation on affinity/avidity,KB cells [7],essentially no loss of affinity; also recorded: little effect on the avidity
B4,correlation of pretreatment shed CanAg levels with pharmacokinetics of antibody clearance,[8],no correlation

# Reference: patent US8987424B2, “CA6 antigen-specific cytotoxic conjugate and methods of using the same” (ImmunoGen, Inc., priority 2003, dated 2015)
